Patent US9211310B2, “Use of a Chinese medicine composition in preparing medicaments for treating secondary prevention of myocardial infarction” (TASLY PHARMACEUTICAL GROUP CO., LTD, priority 2010, dated 2015)

Test system: patients after acute myocardial infarction
Assay: Life quality, Seattle Angina Questionnaire (SAQ), same clinical trial
Assay type: in vivo, human
Details: PP
Description: 3508 patients who were in accordance with the diagnostic standards of AMI for 28 days to 2 years and differentiated as Qi deficiency and blood stagnation syndrome by TCM were studied. 0.5 g Chinese medicine composition prepared by the method of EXAMPLE 1 (Coded as QSYQ) was administrated half an hour after meal, 3 times per day.
There were 19 questions in the Seattle angina questionnaire (SAQ), including 5 parts: physical limitation (PL), anginal stability (AS), anginal frequency (AF), treatment satisfaction (TS) and disease perception (DP). After being given necessary explanation by doctors, the questions were answered independently by patients.
They included the overall survival time, angina pectoris score, TCM symptom score and life quality score, where angina pectoris score, TCM symptom score and life quality score were evaluated at randomization, in 1st, 3rd, 6th, 9th, 12th month after treatment and 18th month after follow-up.
All evaluation results of SAQ were described during the period of observation, and Wilcoxon rank sum test was used for inter-group comparison.
The evaluation results in the SAQ were depicted in different observations, and inter-group comparison was tested by Wilcoxon Rank-sum test.

For `CC(=O)Oc1ccccc1C(=O)O` [Control group, aspirine], the “SAQ 5th question, <1 time per week: number of patients” value (9 months after treatment) was 412, the “SAQ 5th question, No onset: % of patients” value (9 months after treatment) was “(4.66%)” and the “SAQ 5th question, No onset: number of patients” value (9 months after treatment) was 67. The “SAQ 5th question, ≧3 times per week: % of patients” value (9 months after treatment) was “(29.49%)”, the “SAQ 5th question, ≧3 times per week: number of patients” value (9 months after treatment) was 424 and the “SAQ 5th question, ≧4 times per day: % of patients” value (9 months after treatment) was “(0.49%)”. The “SAQ 5th question, ≧4 times per day: number of patients” value (9 months after treatment) was 7, the “SAQ 6th question, Dissatisfied: % of patients” value (9 months after treatment) was “(0.07%)” and the “SAQ 6th question, Dissatisfied: number of patients” value (9 months after treatment) was 1. The “SAQ 6th question, Highly satisfied: % of patients” value (9 months after treatment) was “(24.93%)”, the “SAQ 6th question, Highly satisfied: number of patients” value (9 months after treatment) was 359 and the “SAQ 6th question, Mostly dissatisfied: % of patients” value (9 months after treatment) was “(1.53%)”. For the same molecule, the “SAQ 6th question, Mostly dissatisfied: number of patients” value (9 months after treatment) was 22, the “SAQ 6th question, Mostly satisfied: % of patients” value (9 months after treatment) was “(59.38%)” and the “SAQ 6th question, Mostly satisfied: number of patients” value (9 months after treatment) was 855. For the same molecule, the “SAQ 6th question, Partly satisfied: % of patients” value (9 months after treatment) was “(14.10%)”, the “SAQ 6th question, Partly satisfied: number of patients” value (9 months after treatment) was 203 and the “SAQ 7th question, Dissatisfied: % of patients” value (9 months after treatment) was “(0.07%)”. The “SAQ 7th question, Dissatisfied: number of patients” value (9 months after treatment) was 1, the “SAQ 7th question, Highly satisfied: % of patients” value (9 months after treatment) was “(28.44%)” and the “SAQ 7th question, Highly satisfied: number of patients” value (9 months after treatment) was 409. For the same molecule, the “SAQ 7th question, Most dissatisfied: % of patients” value (9 months after treatment) was “(0.83%)”, the “SAQ 7th question, Most dissatisfied: number of patients” value (9 months after treatment) was 12 and the “SAQ 7th question, Mostly satisfied: % of patients” value (9 months after treatment) was “(59.74%)”. The “SAQ 7th question, Mostly satisfied: number of patients” value (9 months after treatment) was 859, the “SAQ 7th question, Partly satisfied: % of patients” value (9 months after treatment) was “(10.92%)” and the “SAQ 7th question, Partly satisfied: number of patients” value (9 months after treatment) was 157. The “SAQ Question 1-1 Mildly limited, number of patients” value (9 months after treatment) was 18, the “SAQ Question 1-1 Mildly limited, percent of patients” value (9 months after treatment) was “(1.25%)” and the “SAQ Question 1-1 Moderately limited, number of patients” value (9 months after treatment) was 3. The “SAQ Question 1-1 Moderately limited, percent of patients” value (9 months after treatment) was “(0.21%)”, the “SAQ Question 1-1 Not limited, number of patients” value (9 months after treatment) was 1366 and the “SAQ Question 1-1 Not limited, percent of patients” value (9 months after treatment) was “(95.06%)”. For the same molecule, the “SAQ Question 1-1 Other reasons, number of patients” value (9 months after treatment) was 3, the “SAQ Question 1-1 Other reasons, percent of patients” value (9 months after treatment) was “(0.21%)” and the “SAQ Question 1-1 Severely limited, number of patients” value (9 months after treatment) was 0. For the same molecule, the “SAQ Question 1-1 Severely limited, percent of patients” value (9 months after treatment) was “(0.00%)”, the “SAQ Question 1-1 Slightly limited, number of patients” value (9 months after treatment) was 47 and the “SAQ Question 1-1 Slightly limited, percent of patients” value (9 months after treatment) was “(3.27%)”. For the same molecule, the “SAQ Question 1-2 Mildly limited, number of patients” value (9 months after treatment) was 20, the “SAQ Question 1-2 Mildly limited, percent of patients” value (9 months after treatment) was “(1.39%)” and the “SAQ Question 1-2 Moderately limited, number of patients” value (9 months after treatment) was 4. The “SAQ Question 1-2 Moderately limited, percent of patients” value (9 months after treatment) was “(0.28%)”, the “SAQ Question 1-2 Not limited, number of patients” value (9 months after treatment) was 1358 and the “SAQ Question 1-2 Not limited, percent of patients” value (9 months after treatment) was “(94.50%)”. The “SAQ Question 1-2 Other reasons, number of patients” value (9 months after treatment) was 5, the “SAQ Question 1-2 Other reasons, percent of patients” value (9 months after treatment) was “(0.35%)” and the “SAQ Question 1-2 Severely limited, number of patients” value (9 months after treatment) was 0. For the same molecule, the “SAQ Question 1-2 Severely limited, percent of patients” value (9 months after treatment) was “(0.00%)”, the “SAQ Question 1-2 Slightly limited, number of patients” value (9 months after treatment) was 50 and the “SAQ Question 1-2 Slightly limited, percent of patients” value (9 months after treatment) was “(3.48%)”. For the same molecule, the “SAQ Question 1-6: Mildly limited, patients (%)” value (9 months after treatment) was “(14.59%)”, the “SAQ Question 1-6: Moderately limited, patients (%)” value (9 months after treatment) was “(11.31%)” and the “SAQ Question 1-6: Not limited, patients (%)” value (9 months after treatment) was “(38.48%)”. For the same molecule, the “SAQ Question 1-6: Other reasons, patients (%)” value (9 months after treatment) was “(0.91%)”, the “SAQ Question 1-6: Severely limited, patients (%)” value (9 months after treatment) was “(2.30%)” and the “SAQ Question 1-6: Slightly limited, patients (%)” value (9 months after treatment) was “(32.40%)”. The “SAQ Question 1-7: Mildly limited, patients (%)” value (9 months after treatment) was “(21.63%)”, the “SAQ Question 1-7: Moderately limited, patients (%)” value (9 months after treatment) was “(10.88%)” and the “SAQ Question 1-7: Not limited, patients (%)” value (9 months after treatment) was “(18.30%)”. For the same molecule, the “SAQ Question 1-7: Other reasons, patients (%)” value (9 months after treatment) was “(3.25%)”, the “SAQ Question 1-7: Severely limited, patients (%)” value (9 months after treatment) was “(13.71%)” and the “SAQ Question 1-7: Slightly limited, patients (%)” value (9 months after treatment) was “(32.23%)”. For the same molecule, the “SAQ Question 1-8: Mildly limited, patients (%)” value (9 months after treatment) was “(25.11%)”, the “SAQ Question 1-8: Moderately limited, patients (%)” value (9 months after treatment) was “(14.11%)” and the “SAQ Question 1-8: Not limited, patients (%)” value (9 months after treatment) was “(12.34%)”. For the same molecule, the “SAQ Question 1-8: Other limited, patients (%)” value (9 months after treatment) was “(3.76%)”, the “SAQ Question 1-8: Severely limited, patients (%)” value (9 months after treatment) was “(17.23%)” and the “SAQ Question 1-8: Slightly limited, patients (%)” value (9 months after treatment) was “(27.45%)”. For the same molecule, the “8th question: Dissatisfied, patients (%)” value (12 months after treatment) was “(0.00%)”, the “8th question: Highly satisfied, patients (%)” value (12 months after treatment) was “(26.80%)” and the “8th question: Mostly dissatisfied, patients (%)” value (12 months after treatment) was “(1.26%)”. The “8th question: Mostly satisfied, patients (%)” value (12 months after treatment) was “(61.16%)”, the “8th question: Partly satisfied, patients (%)” value (12 months after treatment) was “(10.78%)” and the “9th question: Few, patients (%)” value (12 months after treatment) was “(41.42%)”. The “9th question: Mild, patients (%)” value (12 months after treatment) was “(29.64%)” and the “9th question: Moderate, patients (%)” value (12 months after treatment) was “(4.48%)”.
